Source: patent US20070009495A1, “Method for treating or preventing systemic inflammation in formula-fed infants” (priority 2005, published 2007)

Columns and labels:
Format in all cases: in vivo, Sprague-Dawley infant rats
TNF-α [1] = test: TNF-α production by ELISA in plasma and lung of rat pups
Excerpt: (§1) This example describes the materials and methods necessary to show the effect of LGG on formula-fed neonatal rat pups. In two separate experiments, ten Sprague-Dawley (Taconic, Germantown, N.Y.) infant rats were randomly assigned to two gastrostomy feeding groups with five rats per group. Gastrostomy feeding, using the rat infant “pup-in-the-cup” model, began on day 7 of life of the rat pups. The gastrostomy feeding tubes were constructed from 14-cm sections of polyethylene tubing that were inserted into the stomach of the pups. This is a commonly used model in studies of developmental nutrition when it is important to manipulate nutritional composition in the absence of maternal feedings. […]
(§2) During a 2-day acclimation period, the gastrostomy-fed rat pups were fed with rat milk substitute (RMS). […] All of the gastrostomy-fed groups received the same quantity of fat and carbohydrates.
(§3) Lipopolysaccharide (LPS) from Escherichia coli 0127:B8 (LPS; Sigma, St. Louis, Mo.) was dissolved in water by vortexing at a concentration of 2 mg/ml. […] This dose was determined in pilot studies to result in occasional shivering, piloerection, and poor weight gain but was not associated with a significant increase in mortality over a 6-day period. […]
To further investigate the effects of the diets on TNF-α, TNF-α production was evaluated by ELISA in the plasma and lung. […]

[2] = Growth (body weight) of gastrostomy-fed, LPS-treated rat pups; settings: LGG 1×10^8 cfu/L/kg/day
Excerpt: (§4) This example describes the materials and methods necessary to show the effect of LGG on formula-fed neonatal rat pups. In two separate experiments, ten Sprague-Dawley (Taconic, Germantown, N.Y.) infant rats were randomly assigned to two gastrostomy feeding groups with five rats per group. Gastrostomy feeding, using the rat infant “pup-in-the-cup” model, began on day 7 of life of the rat pups. The gastrostomy feeding tubes were constructed from 14-cm sections of polyethylene tubing that were inserted into the stomach of the pups. This is a commonly used model in studies of developmental nutrition when it is important to manipulate nutritional composition in the absence of maternal feedings. The gastrostomy placement was done under isoflurane anesthesia. […]
as §2, §3

IL-10 = test: Multiplex bead cytokine assay, IL-10
Excerpt: as §1, §2, §3
(§5) To further investigate the effects of LPS and LGG on cytokines, 14 cytokines/chemokines from lung, liver, plasma and distal small intestine were analyzed. […]

CINC-1 = CINC-1 peptide production by ELISA in rat pup tissues
Excerpt: This example describes the materials and methods necessary to show the effect of LGG on formula-fed neonatal rat pups. In two separate experiments, ten Sprague-Dawley (Taconic, Germantown, N.Y.) infant rats were randomly assigned to two gastrostomy feeding groups with five rats per group. Gastrostomy feeding, using the rat infant “pup-in-the-cup” model, began on day 7 of life of the rat pups. The gastrostomy feeding tubes were constructed from 14-cm sections of polyethylene tubing that were inserted into the stomach of the pups. This is a commonly used model in studies of developmental nutrition when it is important to manipulate nutritional composition in the absence of maternal feedings. The gastrostomy placement was done under isoflurane anesthesia. Timer-controlled syringe pumps were connected to the feeding tubes and were set to feed the rats for the first 20 minutes of every hour at a weight-dependent flow rate. Five mother-reared rats of the same age were used as reference controls.
During a 2-day acclimation period, the gastrostomy-fed rat pups were fed with rat milk substitute (RMS). The protein component of the RMS was between 30 and 40 g/kg/day, which is similar to that of mother's milk and is required for normal growth. One of the RMS fed groups was also given a supplement of 1×10^8 cfu/L/kg/day LGG. The other group was fed RMS alone, without LGG supplementation. All of the gastrostomy-fed groups received the same quantity of fat and carbohydrates.
Lipopolysaccharide (LPS) from Escherichia coli 0127:B8 (LPS; Sigma, St. Louis, Mo.) was dissolved in water by vortexing at a concentration of 2 mg/ml. The gastrostomy-fed rats were given between 0.25 and 0.5 mg/kg/day of LPS via the gastrostomy tube starting 2 days after the initiation of artificial feeding. The pups were given LPS supplementation for 6 days. This dose was determined in pilot studies to result in occasional shivering, piloerection, and poor weight gain but was not associated with a significant increase in mortality over a 6-day period.
At the end of the 6-day treatment period, the rat pups were euthanized with an overdose of pentobarbital sodium. The small intestine was removed and separated into three parts: the ileum, jejunum, and duodenum, stored at −80° C. for enzyme assays and ELISA, or fixed in 10% neutral buffered formalin for intestinal morphology. Lung, liver and plasma were stored at −80° C. for enzyme assays and ELISA.
This example illustrates the effect of LGG on CINC-1. Small intestine and plasma CINC-1 levels were determined by TiterZyme Enzyme Immunometric Assay kits for rat growth-related oncogene/CINC-1 (Assay Designs, Ann Arbor, Mich.). Absorbance was determined at 450 nm, and concentration was calculated using the equation derived from a linear standard curve.
To further investigate the effects of the diets on CINC-1 peptide, CINC-1 production was evaluated by ELISA in the small intestine, liver, lung and plasma. In an initial experiment, LPS administration to rat pups caused an approximate 4-fold elevation in CINC-1 over non-LPS treated pups fed by gastrostomy (data not shown). […] In the liver and plasma, LGG supplementation reduced CINC-1 levels to a level which was very similar to that of mother's milk-fed rat pups.

MPO = MPO activity in distal small intestine and lung of rat pups
Excerpt: as §1, §2, §3
This example illustrates the effect of LGG on MPO levels. […] MPO concentration of the supernatant was measured by the H2O2-dependent oxidation of tetramethylbenzidine. […]

ileum intestinal mucosa = test: Intestinal morphology of ileum (H&E stain) in LPS-treated rat pups
Excerpt: as §4, §2, §3

IL-6 = test: Multiplex bead cytokine assay, IL-6
Excerpt: as §1, §2, §3, §5

TNF-α [3] = test: Multiplex bead cytokine assay, TNF-α
Excerpt: as §1, §2, §3, §5

IL-1β = test: Multiplex bead cytokine assay, IL-1β
Excerpt: as §1, §2, §3, §5

IL-18 = test: Multiplex bead cytokine assay, IL-18
Excerpt: as §1, §2, §3, §5

GRO/KC (rat CINC-1) = test: Multiplex bead cytokine assay, GRO/KC
Excerpt: as §1, §2, §3, §5

[4] = system: cytokine/chemokine levels; test: Multiplex bead cytokine assay, liver cytokine/chemokine levels
Excerpt: as §1, §2, §3, §5

With Lactobacillus rhamnosus GG [LGG] the “LPS induced elevation of TNF-α, lung” value (TNF-α [1]; lung) was “significantly blunted”, the “LPS induced elevation of TNF-α, plasma” value (TNF-α [1]; plasma) was “significantly blunted” and the weight gain [2] was “did not improve weight gain”. For the same substance, the “LPS induced elevation of IL-10, lung” value (IL-10) was “significantly blunted”, the “liver CINC-1 concentration” value (CINC-1; liver, LPS/LGG vs LPS) was “significantly attenuated” and the “lung CINC-1” value (CINC-1; lung, LPS/LGG vs LPS) was “significantly attenuated”. For the same substance, the “plasma CINC-1 concentration” value (CINC-1; plasma, LPS/LGG vs LPS) was “significantly attenuated”, the “intestinal CINC-1 levels” value (CINC-1; small intestine, LPS vs LPS/LGG vs mother-fed) was “did not differ significantly among the 3 groups” and the “LPS induced elevation of MPO, distal small intestine” value (MPO; distal small intestine) was “significantly blunted”. The “LPS induced elevation of MPO, lung” value (MPO; lung) was “significantly blunted”, the “ileum histological features (metaplasia, lymphoplasmacytic infiltrate, thinning of muscularis mucosa, regenerative crypt changes)” value (ileum intestinal mucosa; LPS plus LGG group vs LPS group) was “attenuated” and the “physical damage in the intestinal mucosa” value (ileum intestinal mucosa; LPS/LGG group vs mother's milk-fed rat pups) was “reduced to a level similar to that of mother's milk-fed rat pups”. The “LPS induced elevation of IL-6, lung” value (IL-6; lung) was “significantly blunted”, the “LPS induced elevation of IL-6, plasma” value (IL-6; plasma) was “significantly blunted” and the “LPS induced elevation of TNF-α, lung” value (TNF-α [3]) was “significantly blunted”. For the same substance, the “LPS induced elevation of IL-1β, lung” value (IL-1β; lung) was “significantly blunted”, the “LPS induced elevation of IL-1β, plasma” value (IL-1β; plasma) was “significantly blunted” and the “LPS induced elevation of IL-18, lung” value (IL-18; lung) was “significantly blunted”. For the same substance, the “LPS induced elevation of IL-18, plasma” value (IL-18; plasma) was “significantly blunted”, the “LPS induced elevation of GRO/KC (rat CINC-1), lung” value (GRO/KC (rat CINC-1); lung) was “significantly blunted” and the “LPS induced elevation of GRO/KC (rat CINC-1), plasma” value (GRO/KC (rat CINC-1); plasma) was “significantly blunted”. The “LPS induced increase of cytokine/chemokine levels in the liver” value [4] was “blunted”.

For “Lipopolysaccharide (LPS) from Escherichia coli 0127:B8 [reference compound]”, the “elevation in CINC-1” value (CINC-1; initial experiment, over non-LPS treated pups fed by gastrostomy (data not shown)) was “approximately 4 fold”, the “liver CINC-1 concentration, fold as high” value (CINC-1; liver, LPS treated group that did not receive LGG) was ~2 fold and the “lung CINC-1 elevation” value (CINC-1; lung, LPS treatment compared to mother-fed controls) was “approximately 4 fold”. The “plasma CINC-1 concentration, fold as high” value (CINC-1; plasma, LPS treated group that did not receive LGG) was ~2 fold.
